Assay results: patent US20110039815A1, “MACROCYCLIC METAL COMPLEXES FOR THEIR USE AS ANTICANCER AGENTS” (priority 2005, published 2011)

Key:
[1] = system: cervical cancer cell line Hela S3; test: Cell death of cervical cancer cell line Hela S3; assay type: cell-based
[2] = rat, intravenous injection, approximately 172 mg/kg during a six hour period, 0.7% saline

## ^Me3TacnRhCl3 [formula 8]
[1]
  anticancer activity against Hela S3: positive
[1]; 10^−2 molar preparation (1.5×10^−2 M)
  Hela cell death rate: approximately 93.1%
[1]; 10^−3 molar preparation (1.5×10^−3 M)
  Hela cell death rate: approximately 90%
[2]
  complex-related toxicity or side effects: no complex-related toxicity or side effects
other
  stability in water: stable
